In patent US9409908B2 (priority 2012, dated 2016):
Where a name gives a salt, the structure may show the parent alone.

These compounds were tested against purified human Factor XIa (Homo sapiens (Human), UniProt P03951) (assay: biochemical). Settings: read-out: Factor XIa Ki.
Sequence of purified human Factor XIa (P03951 whole entry, looked up): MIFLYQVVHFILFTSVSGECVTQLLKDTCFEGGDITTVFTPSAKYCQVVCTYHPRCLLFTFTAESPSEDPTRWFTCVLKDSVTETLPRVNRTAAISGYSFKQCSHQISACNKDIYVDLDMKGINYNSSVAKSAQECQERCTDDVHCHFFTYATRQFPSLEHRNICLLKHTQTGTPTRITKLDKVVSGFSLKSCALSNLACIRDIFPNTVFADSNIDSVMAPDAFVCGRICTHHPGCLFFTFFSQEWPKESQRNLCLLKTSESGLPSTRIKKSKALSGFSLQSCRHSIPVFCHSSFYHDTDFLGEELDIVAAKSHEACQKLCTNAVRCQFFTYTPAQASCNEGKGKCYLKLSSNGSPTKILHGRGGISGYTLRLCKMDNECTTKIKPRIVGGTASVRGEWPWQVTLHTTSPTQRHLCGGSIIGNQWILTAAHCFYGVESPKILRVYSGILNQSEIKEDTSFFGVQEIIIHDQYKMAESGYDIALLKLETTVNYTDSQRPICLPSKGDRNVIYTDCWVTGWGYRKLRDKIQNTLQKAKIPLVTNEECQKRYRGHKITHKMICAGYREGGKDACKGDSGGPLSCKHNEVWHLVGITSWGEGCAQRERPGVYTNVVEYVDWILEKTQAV
Sequence of purified human Factor XIa (P03951 whole entry partner, looked up): as the sequence (P03951 whole entry, looked up) above
Type: biochemical
With `C[C@@H]1CCC[C@H](N2CCC(c3c(F)ccc(Cl)c3F)=CC2=O)c2cc(ccn2)-n2nc(C3CC3)cc2NC1=O` [Example 223, (9R,13S)-13-[4-(3-chloro-2,6-difluorophenyl)-6-oxo-1,2,3,6-tetrahydropyridin-1-yl]-4-cyclopropyl-9-methyl-2,3,7,15-tetraazatricyclo[12.3.1.0^2,6]octadeca-1(18),3,5,14,16-pentaen-8-one] the Ki was 302 nM.
For `C[C@@H]1CCC[C@H](n2ccc(-c3c(F)ccc(Cl)c3F)cc2=O)c2cc(ccn2)-c2ccc(N)cc2NC1=O` [Example 91, (10R,14S)-5-Amino-14-[4-(3-chloro-2,6-difluorophenyl)-2-oxo-1,2-dihydropyridin-1-yl]-10-methyl-8,16-diazatricyclo[13.3.1.0^2,7]nonadeca-1(19),2,4,6,15,17-hexaen-9-one, 2 TFA salt], the Ki was 0.56 nM.
In the case of `COC(=O)Nc1ccc2c(c1)NC(=O)[C@H](C)CCC[C@H](N1CCC(c3cc(Cl)ccc3OC(F)F)=CC1=O)c1cc-2ccn1` [Example 44, Methyl N-[(10R,14S)-14-{4-[5-chloro-2-(difluoromethoxy)phenyl]-6-oxo-1,2,3,6-tetrahydropyridin-1-yl}-10-methyl-9-oxo-8,16-diazatricyclo[13.3.1.0^2,7]nonadeca-1(19),2,4,6,15,17-hexaen-5-yl]carbamate, TFA salt], the Ki is reported as 0.13 nM.
For `COC(=O)Nc1ccc2c(c1)NC(=O)[C@H](C)CCC[C@H](N1CCC(c3c(C#N)ccc(C)c3F)=CC1=O)c1cc-2ccn1` [Example 104, Methyl N-[(10R,14S)-14-[4-(6-cyano-2-fluoro-3-methylphenyl)-6-oxo-1,2,3,6-tetrahydropyridin-1-yl]-10-methyl-9-oxo-8,16-diazatricyclo[13.3.1.0^2,7]nonadeca-1(18),2,4,6,15(19),16-hexaen-5-yl]carbamate, TFA salt], the Ki was 0.09 nM.
Compound `C#Cc1ccc(Cl)c(F)c1C1=CC(=O)N([C@H]2CCC[C@@H](C)C(=O)Nc3cc(NC(=O)OC)ccc3-c3ccnc2c3)CC1` [Example 181, Methyl N-[(10R,14S)-14-[4-(3-chloro-6-ethynyl-2-fluorophenyl)-6-oxo-1,2,3,6-tetrahydropyridin-1-yl]-10-methyl-9-oxo-8,16-diazatricyclo[13.3.1.0^2,7]nonadeca-1(19),2(7),3,5,15,17-hexaen-5-yl]carbamate] has a Ki of 0.1 nM.
`C[C@@H]1CCC[C@H](N2CCC(c3c(F)ccc(Cl)c3F)=CC2=O)c2cc(ccn2)-c2cc(C(=O)O)ccc2NC1=O` [Example 146, (10R,14S)-14-[4-(3-chloro-2,6-difluorophenyl)-6-oxo-1,2,3,6-tetrahydropyridin-1-yl]-10-methyl-9-oxo-8,16-diazatricyclo[13.3.1.0^2,7]nonadeca-1(19),2(7),3,5,15,17-hexaene-4-carboxylic acid] gave a Ki of 2.45 nM.
`COC(=O)Nc1ccc2c(c1)NC(=O)[C@H](C)CCC[C@H](N1CCC(c3c(C#N)ccc(Cl)c3F)=CC1=O)c1cccc-2c1` [Example 173, Methyl N-[(10R,14S)-14-[4-(3-chloro-6-cyano-2-fluorophenyl)-6-oxo-1,2,3,6-tetrahydropyridin-1-yl]-10-methyl-9-oxo-8-azatricyclo[13.3.1.0^2,7]nonadeca-1(18),2,4,6,15(19),16-hexaen-5-yl]carbamate] was tested, and the Ki was 0.42 nM.
Compound `C[C@@H]1CCC[C@H](N2CCC(c3cc(Cl)ccc3-n3ccnn3)=CC2=O)c2cc(ccn2)-c2ccccc2NC1=O` [Example 189, (10R,14S)-14-{4-[5-chloro-2-(1H-1,2,3-triazol-1-yl)phenyl]-6-oxo-1,2,3,6-tetrahydropyridin-1-yl}-10-methyl-8,16-diazatricyclo[13.3.1.0^2,7]nonadeca-1(19),2(7),3,5,15,17-hexaen-9-one] has a Ki of 2.28 nM.
In the case of `C[C@@H]1CCC[C@H](N2CCC(c3c(F)ccc(Cl)c3F)=CC2=O)c2cc(ccn2)-c2cc(I)c(N)cc2NC1=O` [Example 61, (10R,14S)-5-Amino-14-[4-(3-chloro-2,6-difluorophenyl)-6-oxo-1,2,3,6-tetrahydropyridin-1-yl]-4-iodo-10-methyl-8,16-diazatricyclo[13.3.1.0^2,7]nonadeca-1(19),2,4,6,15,17-hexaen-9-one, TFA salt], the Ki is reported as 24.6 nM.
For `COC(=O)Nc1cc2n(n1)-c1ccnc(c1)[C@@H](N1CCC(c3c(F)ccc(Cl)c3F)=CC1=O)CCC[C@@H](C)C(=O)N2` [Example 224, Methyl N-[(9R,13S)-13-[4-(3-chloro-2,6-difluorophenyl)-6-oxo-1,2,3,6-tetrahydropyridin-1-yl]-9-methyl-8-oxo-2,3,7,15-tetraazatricyclo[12.3.1.0^2,6]octadeca-1(18),3,5,14,16-pentaen-4-yl]carbamate], the Ki was 298 nM.
`COC(=O)Nc1ccc2c(c1)NC(=O)[C@H](C)CCC[C@H](N1CCC(c3cncn3Cc3ccccc3)=CC1=O)c1cc-2ccn1` [Example 101, Methyl N-[(10R,14S)-14-[4-(1-benzyl-1H-imidazol-5-yl)-6-oxo-1,2,3,6-tetrahydropyridin-1-yl]-10-methyl-9-oxo-8,16-diazatricyclo[13.3.1.0^2,7]nonadeca-1(19),2,4,6,15,17-hexaen-5-yl]carbamate, bis TFA salt] was tested, and the Ki was > 434 nM.
`CCOC(=O)Cc1nnc(Nc2ccc3c(c2)NC(=O)[C@H](C)CCC[C@H](N2CCC(c4c(F)ccc(Cl)c4F)=CC2=O)c2cc-3ccn2)o1` [Example 42, Ethyl 2-(5-{[(10R,14S)-14-[4-(3-chloro-2,6-difluorophenyl)-6-oxo-1,2,3,6-tetrahydropyridin-1-yl]-10-methyl-9-oxo-8,16-diazatricyclo[13.3.1.0^2,7]nonadeca-1(19),2,4,6,15,17-hexaen-5-yl]amino}-1,3,4-oxadiazol-2-yl)acetate, TFA salt] gave a Ki of 0.45 nM.
With `C[C@@H]1CCC[C@H](N2CCC(c3c(F)ccc(Cl)c3F)=CC2=O)c2cc(ccn2)-n2nc(C(=O)O)cc2NC1=O` [Example 222, (9R,13S)-13-[4-(3-chloro-2,6-difluorophenyl)-6-oxo-1,2,3,6-tetrahydropyridin-1-yl]-9-methyl-8-oxo-2,3,7,15-tetraazatricyclo[12.3.1.0^2,6]octadeca-1(18),3,5,14,16-pentaene-4-carboxylic acid] the Ki was 88.4 nM.
`C[C@@H]1CCC[C@H](N2CCC(c3c(-n4cnnn4)ccc(Cl)c3F)=CC2=O)c2cc(ccn2)-c2ccccc2NC1=O` [Example 68, (10R,14S)-14-{4-[3-Chloro-2-fluoro-6-(1H-1,2,3,4-tetrazol-1-yl)phenyl]-6-oxo-1,2,3,6-tetrahydropyridin-1-yl}-10-methyl-8,16-diazatricyclo[13.3.1.0^2,7]nonadeca-1(19),2(7),3,5,15,17-hexaen-9-one, TFA salt] gave a Ki of 0.05 nM.
Work on `CC(=O)Nc1ccc2c(c1)NC(=O)[C@H](C)CCC[C@H](N1CCC(c3c(F)ccc(Cl)c3F)=CC1=O)c1cc-2ccn1` [Example 75, N-[(10R,14S)-14-[4-(3-Chloro-2,6-difluorophenyl)-6-oxo-1,2,3,6-tetrahydropyridin-1-yl]-10-methyl-9-oxo-8,16-diazatricyclo[13.3.1.0^2,7]nonadeca-1(19),2(7),3,5,15,17-hexaen-5-yl]acetamide, TFA salt] yielded a Ki of 3.54 nM.
`C[C@@H]1CCC[C@H](N2CCC(c3c(F)ccc(Cl)c3F)=CC2=O)c2cc(ccn2)-c2ccc(NC(=N)N)cc2NC1=O` [Example 192, 1-[(10R,14S)-14-[4-(3-chloro-2,6-difluorophenyl)-6-oxo-1,2,3,6-tetrahydropyridin-1-yl]-10-methyl-9-oxo-8,16-diazatricyclo[13.3.1.0^2,7]nonadeca-1(19),2,4,6,15,17-hexaen-5-yl]guanidine, 2 TFA salt] gave a Ki of 91 nM.
